≈ marks a conversion by molar mass, not a printed value.
Key:
[1] = tested on: kanamycin-resistant Mycobacterium tuberculosis; test: microbe, parasite or virus in culture; type: cell-based; settings: read-out: MIC KM-R
[2] = tested on: isoniazid-resistant Mycobacterium tuberculosis (ATCC 35822); test: microbe, parasite or virus in culture; type: cell-based; settings: ATCC35822, read-out: MIC INH-R
[3] = tested on: M. tuberculosis H37Rv; test: MIC determination by Microplate Alamar Blue Assay (MABA) against H37Rv; type: cell-based, Mycobacterium tuberculosis; settings: Mycobacterium tuberculosis, H37RV; Alamar assay, confirmatory testing alongside drug-resistant strains; read-out: MIC H37Rv
[4] = tested on: ciprofloxacin-resistant Mycobacterium tuberculosis; test: microbe, parasite or virus in culture; type: cell-based; settings: read-out: MIC CIP-R
[5] = tested on: rifampin-resistant Mycobacterium tuberculosis (ATCC 35838); test: microbe, parasite or virus in culture; type: cell-based; settings: ATCC35838, Alamar assay
[6] = tested on: ethambutol-resistant Mycobacterium tuberculosis; test: microbe, parasite or virus in culture; type: cell-based; settings: read-out: MIC EMB-R
[7] = tested on: single-drug resistant M. tuberculosis strains; type: cell-based, Mycobacterium tuberculosis; settings: judged from the ratios in Table 5

| SMILES | MIC [1] [µg/mL] | MIC [2] [µg/mL] | MIC [3] [µg/mL] | MIC [4] [µg/mL] | MIC [5] [µg/mL] | MIC [6] [µg/mL] | cross-resistance with isoniazid, rifampin, ethambutol, kanamycin or ciprofloxacin [7] |
| --- | --- | --- | --- | --- | --- | --- | --- |
| CC(=O)Nc1ccc(/C=N/NC(N)=S)cc1F [Compound 16, 4-Acetamido-3-fluorobenzaldehyde thiosemicarbazone] | ≤ 0.1 | ≤ 0.1 | ≤ 0.1 | ≤ 0.1 | ≤ 0.1 | 0.2 (≈ 0.787 µM) | no cross-resistance |
| Nc1cc(O)c(C(=O)O)cc1F [Compound 12, 4-Amino-5-fluorosalicylic Acid] | 6.25 (≈ 36.5 µM) | 25 (≈ 146 µM) | ≤ 3.13 | 6.25 (≈ 36.5 µM) | 6.25 (≈ 36.5 µM) | ≤ 3.13 | – |
